# System: Lipoprotein Particle Concentrations
# Assay: Lipoprotein particle concentrations, 12-week double-blind placebo-controlled study of >96% E-EPA in statin-treated patients
# Assay type: in vivo, human
# Settings: 12 weeks; for IDL, Change From Baseline, % / IDL, End of Treatment / Large HDL, Change From Baseline, % / Large HDL, End of Treatment / Large LDL, Change From Baseline, % / Large LDL, End of Treatment / Large VLDL, Change From Baseline, % / Large VLDL, End of Treatment / Medium HDL, Change From Baseline, % / Medium HDL, End of Treatment / Medium VLDL, Change From Baseline, % / Medium VLDL, End of Treatment / Small HDL, Change From Baseline, % / Small HDL, End of Treatment / Small LDL, Change From Baseline, % / Small LDL, End of Treatment / Small VLDL, Change From Baseline, % / Small VLDL, End of Treatment / Total HDL, Change From Baseline, % / Total HDL, End of Treatment / Total LDL, Change From Baseline, % / Total LDL, End of Treatment / Total VLDL, Change From Baseline, % / Total VLDL, End of Treatment: median
# Description: A multi-center, placebo-controlled, randomized, double-blind, 12-week study was performed to evaluate the efficacy and safety of >96% E-EPA in patients with fasting triglyceride levels ≥200 mg/dl and <500 mg/dl despite statin therapy (the mean of two qualifying entry values needed to be ≥185 mg/dl and at least one of the values needed to be ≥200 mg/dl). The primary objective of the study was to determine the efficacy of >96% E-EPA 2 g daily and 4 g daily, compared to placebo, in lowering fasting TG levels in patients with high risk for cardiovascular disease and with fasting TG levels ≥200 mg/dl and <500 mg/dl, despite treatment to LDL-C goal on statin therapy.
# The population for this study was men and women >18 years of age with a body mass index ≤45 kg/m^2 with fasting TG levels greater than or equal to 200 mg/dl and less than 500 mg/dl and on a stable does of statin therapy (with or without ezetimibe). The statin was atorvostatin, rosuvastatin or simvastatin. The dose of statin must have been stable for ≥4 weeks prior to the LDL-C/TG baseline qualifying measurement for randomization. The statin dose was optimized such that the patients are at their LDL-C goal at the LDL-C/TG baseline qualifying measurements. The same statin at the same dose was continued until the study ended.
# Approximately 702 patients were randomized at approximately 80 centers in the U.S. The study was a 18- to 20-week, Phase 3, multi-center study consisting of 2 study periods: (1) A 6- to 8-week screening period that included a diet and lifestyle stabilization, a non-statin lipid-altering treatment washout, and an LDL-C and TG qualifying period and (2) A 12-week, double-blind, randomized, placebo-controlled treatment period.
# After confirmation of qualifying fasting LDL-C and TG values, eligible patients entered a 12-week, randomized, double-blind treatment period. At Visit 4 (Week 0), patients were randomly assigned to 1 of the following treatment groups: • >96% E-EPA 2 g daily, • >96% E-EPA 4 g daily, or • Placebo.
# During the double-blind treatment period, patients were to take 2 capsules (>96% E-EPA or matching placebo) in the morning and 2 capsules in the evening for a total of 4 capsules per day. • Patients in the >96% E-EPA 2 g/day treatment group received 1>96% E-EPA 1 g capsule and 1 matching placebo capsule in the morning and in the evening. • Patients in the >96% E-EPA 4 g/day treatment group received 2>96% E-EPA 1 g capsules in the morning and evening.
# The primary efficacy variable for the double-blind treatment period was percent change in TG from baseline to Week 12 endpoint. The secondary efficacy variables for the double-blind treatment period included the following: • Percent changes in total cholesterol (TC), high-density lipoprotein cholesterol (HDL-C), LDL-C, calculated non-HDL-C, and very low-density lipoprotein cholesterol (VLDL-C) from baseline to Week 12 endpoint; • Percent change in very low-density lipoprotein TG from baseline to Week 12; • Percent changes in apolipoprotein A-I (apo A-I), apolipoprotein B (apo B), and apo A-I/apo B ratio from baseline to Week 12; • Percent changes in lipoprotein(a) from baseline to Week 12; • Percent changes in LDL particle number and size, measured by nuclear magnetic resonance, from baseline to Week 12; • Percent change in remnant-like particle cholesterol from baseline to Week 12; • Percent change in oxidized LDL from baseline to Week 12; • Changes in FPG and HbA1c from baseline to Week 12; • Change in insulin resistance, as assessed by the homeostasis model index insulin resistance, from baseline to Week 12; • Percent change in lipoprotein associated phospholipase A2 (Lp-PLA2) from baseline to Week 12; • Change in intracellular adhesion molecule-1 from baseline to Week 12; • Change in interleukin-2 from baseline to Week 12; • Change in plasminogen activator inhibitor-1 from baseline to Week 12. […]
# [1] = 2 g/day, placebo-adjusted Hodges-Lehmann median
# [2] = 4 g/day, placebo-adjusted Hodges-Lehmann median
# [3] = 4 g/day, placebo-adjusted Hodges-Lehmann median, listed as Ethyl Eicosapentaenoate
# [4] = 4 g/day, placebo-adjusted Hodges-Lehmann median, listed as IPE
structure (smiles),measurement,setting,value
"CC/C=C\C/C=C\C/C=C\C/C=C\C/C=C\CCCC(=O)OCC [ethyl eicosapentaenoate, all-cis eicosa-5,8,11,14,17-pentaenoic acid ethyl ester]","IDL, Change From Baseline, %","2 g/day, n = 222",10.5%
same,"IDL, End of Treatment","2 g/day, n = 222",63.5 nmol/L
same,"Large HDL, Change From Baseline, %","2 g/day, n = 222",−4.0%
same,"Large HDL, End of Treatment","2 g/day, n = 222",2.4 µmol/L
same,"Large LDL, Change From Baseline, %","2 g/day, n = 222",47.7%
same,"Large LDL, End of Treatment","2 g/day, n = 222",202.0 nmol/L
same,"Large VLDL, Change From Baseline, %","2 g/day, n = 222",−19.7%
same,"Large VLDL, End of Treatment","2 g/day, n = 222",10.0 nmol/L
same,"Medium HDL, Change From Baseline, %","2 g/day, n = 222",2.9%
same,"Medium HDL, End of Treatment","2 g/day, n = 222",7.2 µmol/L
same,"Medium VLDL, Change From Baseline, %","2 g/day, n = 222",7.9%
same,"Medium VLDL, End of Treatment","2 g/day, n = 222",59.6 nmol/L
same,"Small HDL, Change From Baseline, %","2 g/day, n = 222",−0.6%
same,"Small HDL, End of Treatment","2 g/day, n = 222",23.8 µmol/L
same,"Small LDL, Change From Baseline, %","2 g/day, n = 222",−4.3%
same,"Small LDL, End of Treatment","2 g/day, n = 222",920.5 nmol/L
same,"Small VLDL, Change From Baseline, %","2 g/day, n = 222",22.1%
same,"Small VLDL, End of Treatment","2 g/day, n = 222",49.6 nmol/L
same,"Total HDL, Change From Baseline, %","2 g/day, n = 222",0.7%
same,"Total HDL, End of Treatment","2 g/day, n = 222",34.7 µmol/L
same,"Total LDL, Change From Baseline, %","2 g/day, n = 222",4.7%
same,"Total LDL, End of Treatment","2 g/day, n = 222",1215 nmol/L
same,"Total VLDL, Change From Baseline, %","2 g/day, n = 222",12.0%
same,"Total VLDL, End of Treatment","2 g/day, n = 222",122.4 nmol/L
same,"IDL, Median Change From Baseline IPE 2 g/day vs Placebo, %",[1],8.6%
same,"Large HDL, Median Change From Baseline IPE 2 g/day vs Placebo, %",[1],−13.5%
same,"Large LDL, Median Change From Baseline IPE 2 g/day vs Placebo, %",[1],26.5%
same,"Large VLDL, Median Change From Baseline IPE 2 g/day vs Placebo, %",[1],−24.2%
same,"Medium HDL, Median Change From Baseline IPE 2 g/day vs Placebo, %",[1],−4.5%
same,"Medium VLDL, Median Change From Baseline IPE 2 g/day vs Placebo, %",[1],2.6%
same,"Small HDL, Median Change From Baseline IPE 2 g/day vs Placebo, %",[1],−0.2%
same,"Small LDL, Median Change From Baseline IPE 2 g/day vs Placebo, %",[1],−14.7%
same,"Small VLDL, Median Change From Baseline IPE 2 g/day vs Placebo, %",[1],16.5%
same,"Total HDL, Median Change From Baseline IPE 2 g/day vs Placebo, %",[1],−3.1%
same,"Total LDL, Median Change From Baseline IPE 2 g/day vs Placebo, %",[1],−7.5%
same,"Total VLDL, Median Change From Baseline IPE 2 g/day vs Placebo, %",[1],1.8%
same,reduction of median concentration of small LDL particles over baseline when adjusted for placebo control,4 g per day,13.5%
same,reduction of median concentration of total HDL over baseline when adjusted for placebo,4 g per day,7.4%
same,reduction of median concentration of total LDL over baseline when adjusted for placebo,4 g per day,7.7%
same,reduction of median concentration of total VLDL over baseline when adjusted for placebo,4 g per day,12.2%
same,"IDL, Change From Baseline, %","4 g/day, n = 216",23.7%
same,"IDL, End of Treatment","4 g/day, n = 216",63.0 nmol/L
same,"Large HDL, Change From Baseline, %","4 g/day, n = 216",−21.6%
same,"Large HDL, End of Treatment","4 g/day, n = 216",1.9 µmol/L
same,"Large LDL, Change From Baseline, %","4 g/day, n = 216",55.2%
same,"Large LDL, End of Treatment","4 g/day, n = 216",172.5 nmol/L
same,"Large VLDL, Change From Baseline, %","4 g/day, n = 216",−41.9%
same,"Large VLDL, End of Treatment","4 g/day, n = 216",7.7 nmol/L
same,"Medium HDL, Change From Baseline, %","4 g/day, n = 216",4.2%
same,"Medium HDL, End of Treatment","4 g/day, n = 216",6.9 µmol/L
same,"Medium VLDL, Change From Baseline, %","4 g/day, n = 216",−6.9%
same,"Medium VLDL, End of Treatment","4 g/day, n = 216",49.7 nmol/L
same,"Small HDL, Change From Baseline, %","4 g/day, n = 216",−3.9%
same,"Small HDL, End of Treatment","4 g/day, n = 216",23.1 µmol/L
same,"Small LDL, Change From Baseline, %","4 g/day, n = 216",−1.1%
same,"Small LDL, End of Treatment","4 g/day, n = 216",902.5 nmol/L
same,"Small VLDL, Change From Baseline, %","4 g/day, n = 216",8.3%
same,"Small VLDL, End of Treatment","4 g/day, n = 216",46.8 nmol/L
same,"Total HDL, Change From Baseline, %","4 g/day, n = 216",−4.0%
same,"Total HDL, End of Treatment","4 g/day, n = 216",32.6 µmol/L
same,"Total LDL, Change From Baseline, %","4 g/day, n = 216",3.8%
same,"Total LDL, End of Treatment","4 g/day, n = 216",1191 nmol/L
same,"Total VLDL, Change From Baseline, %","4 g/day, n = 216",−2.5%
same,"Total VLDL, End of Treatment","4 g/day, n = 216",110.0 nmol/L
same,"IDL, Median Change From Baseline IPE 4 g/day vs Placebo, %",[2],10.0%
same,"Large HDL, Median Change From Baseline IPE 4 g/day vs Placebo, %",[2],significantly reduced
same,"Large LDL, Median Change From Baseline IPE 4 g/day vs Placebo, %",[2],increased
same,"Large VLDL, Median Change From Baseline IPE 4 g/day vs Placebo, %",[2],significantly reduced
same,"Medium HDL, Median Change From Baseline IPE 4 g/day vs Placebo, %",[2],−6.5%
same,"Medium VLDL, Median Change From Baseline IPE 4 g/day vs Placebo, %",[2],significantly reduced
same,"Small HDL, Median Change From Baseline IPE 4 g/day vs Placebo, %",[2],−2.8%
same,"Small LDL, Median Change From Baseline IPE 4 g/day vs Placebo, %",[2],significantly reduced
same,"Small VLDL, Median Change From Baseline IPE 4 g/day vs Placebo, %",[2],2.8%
same,"Total HDL, Median Change From Baseline IPE 4 g/day vs Placebo, %",[2],significantly reduced
same,"Total LDL, Median Change From Baseline IPE 4 g/day vs Placebo, %",[2],significantly reduced
same,"Total VLDL, Median Change From Baseline IPE 4 g/day vs Placebo, %",[2],significantly reduced
same,"Small LDL, Median Change From Baseline IPE 4 g/day vs Placebo, %",[3],−13.5%
same,"Total HDL, Median Change From Baseline IPE 4 g/day vs Placebo, %",[3],−7.4%
same,"Total LDL, Median Change From Baseline IPE 4 g/day vs Placebo, %",[3],−7.7%
same,"Total VLDL, Median Change From Baseline IPE 4 g/day vs Placebo, %",[3],−12.2%
same,"Large HDL, Median Change From Baseline IPE 4 g/day vs Placebo, %",[4],−31.0%
same,"Large LDL, Median Change From Baseline IPE 4 g/day vs Placebo, %",[4],34.2%
same,"Large VLDL, Median Change From Baseline IPE 4 g/day vs Placebo, %",[4],−46.4%
same,"Medium VLDL, Median Change From Baseline IPE 4 g/day vs Placebo, %",[4],−12.1%
same,"Small LDL, Median Change From Baseline IPE 4 g/day vs Placebo, %",[4],−13.5%
same,"Total HDL, Median Change From Baseline IPE 4 g/day vs Placebo, %",[4],−7.4%
same,"Total LDL, Median Change From Baseline IPE 4 g/day vs Placebo, %",[4],−7.7%
same,"Total VLDL, Median Change From Baseline IPE 4 g/day vs Placebo, %",[4],−12.2%
